Experimental data: PubChem BioAssay (NCI)
Values joined by “and” are separate entries in the source; they are usually repeats but may differ in a detail not shown here. Identical values can stand only once.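 The compound was tested at five concentrations on cells cultured in 96-well plates, with a 48-hour exposure period. The concentration for 50% growth inhibition is given as GI50. The concentration for full growth arrest is given as TGI.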

What was measured:
Assay in all cases: inhibition of tumour cell growth, NCI panel, 48 h
CCRF-CEM leukemia = tested on: CCRF-CEM leukemia
786-0 renal = tested on: 786-0 renal
SF-268 CNS = tested on: SF-268 CNS
NCI-H460 lung = tested on: NCI-H460 lung
SNB-19 CNS = tested on: SNB-19 CNS
NCI-H23 lung = tested on: NCI-H23 lung
RXF 393 renal = tested on: RXF 393 renal
OVCAR-8 ovarian = tested on: OVCAR-8 ovarian
SK-MEL-2 melanoma = tested on: SK-MEL-2 melanoma
SR leukemia = tested on: SR leukemia

Row | SMILES | TGI (CCRF-CEM leukemia) | TGI (786-0 renal) | TGI (SF-268 CNS) | TGI (NCI-H460 lung) | TGI (SNB-19 CNS) | TGI (NCI-H23 lung) | TGI (RXF 393 renal) | TGI (OVCAR-8 ovarian) | TGI (SK-MEL-2 melanoma) | TGI (SR leukemia) [µM] | GI50 (CCRF-CEM leukemia) | GI50 (786-0 renal) | GI50 (SF-268 CNS) | GI50 (NCI-H460 lung) | GI50 (SNB-19 CNS) | GI50 (NCI-H23 lung) | GI50 (RXF 393 renal) | GI50 (OVCAR-8 ovarian) | GI50 (SK-MEL-2 melanoma) | GI50 (SR leukemia) [µM]
1 | O=C1CCCC1NC(=O)C(F)(F)F (stereo not drawn) | > 100 µM | > 100 µM | > 100 µM | > 100 µM | > 100 µM | > 100 µM | > 100 µM | > 100 µM | > 100 µM |  |  |  |  |  |  |  |  |  |  | 
2 | CCOC(=O)NC(=O)c1cn(CCN2CCN(C(=O)NCCCCCCNC(=O)N3CCN(CCn4cc(C(=O)NC(=O)OCC)c(=O)n(CCN(CC)CC)c4=O)CC3)CC2)c(=O)n(CCC(CC)CC)c1=O |  | > 100 µM | > 100 µM | > 100 µM | > 100 µM | > 100 µM | > 100 µM | > 100 µM | > 100 µM | > 100 |  |  |  |  |  |  |  |  |  | 
3 | Clc1ccc(SCCCCCCCCCCSc2ccc(Cl)cc2)cc1 | > 100 µM | > 70.4 µM | > 100 µM | > 78.7 µM | > 100 µM | > 100 µM | > 100 µM | > 80.1 µM | > 70.4 µM |  |  |  |  |  |  |  |  |  |  | 
4 | CC1=C(C(=O)Nc2ccc(F)c(Cl)c2)C(c2cccc(Oc3ccccc3)c2)NC(=O)N1 (stereo not drawn) | 26.4 µM | 29.8 µM | 40.3 µM | 38.4 µM | 31.3 µM | 28.8 µM | 32.1 µM | 43.7 µM | 32.4 µM |  | 10.4 µM | 15.4 µM | 15.6 µM | 15.7 µM | 16 µM | 15.4 µM | 14.4 µM | 18 µM | 17.2 µM | 
5 | O=C1C[C@H]2CC3(CC[C@H]2CN1)OCCO3 | > 100 µM | > 100 µM | > 100 µM | > 100 µM | > 100 µM | > 100 µM | > 100 µM | > 100 µM | > 100 µM |  |  |  |  |  |  |  |  |  |  | 
6 | CN(C)c1ccc(O)c2c1C[C@H]1C[C@H]3[C@H](N(C)C)C(=O)C(C(N)=O)=C(O)[C@@]3(O)C(=O)C1=C2O | 65.9 µM | 22.3 µM | > 100 µM | 20.7 µM | > 100 µM | 39.7 µM | 69.7 µM | > 100 µM |  | 22.3 | 6.27 µM | 4.45 µM | 5.46 µM | 3.45 µM | 5.93 µM | 4.95 µM | 4.01 µM | 5.11 µM |  | 3.48
7 | S=C(Nc1ccccc1)N(Cc1ccccc1)c1ccccc1 | > 100 µM | > 100 µM | > 100 µM | > 100 µM | > 100 µM | > 100 µM | 85 µM |  | 41.2 µM | > 100 |  |  |  |  |  |  |  |  |  | 
8 | CC12CC3CC(C1)CC(N=[N+]=[N-])(C3)C2 | > 100 µM | > 100 µM |  | > 100 µM | > 100 µM | > 100 µM |  | > 100 µM | > 100 µM |  |  |  |  |  |  |  |  |  |  | 
9 | CCOC(=O)C#Cc1c(CC(=O)OCC)nnn1[C@H]1O[C@@H](CO)[C@@H]2OC(C)(C)O[C@@H]21 | 4.97 µM | 19.6 µM | 34.6 µM | 33.2 µM | > 100 µM | 30.5 µM | 3.32 µM | 18.2 µM | 34.8 µM |  | 2.04 µM | 6.58 µM | 16.3 µM | 15 µM | 33.9 µM | 13.6 µM | 1.69 µM | 5.48 µM | 18.4 µM | 
10 | O=C(/C=C1/NC(=O)CS1)Nc1ccccc1 | > 100 µM | > 100 µM | > 100 µM | > 100 µM | > 100 µM | > 100 µM | > 100 µM | > 100 µM | > 100 µM |  |  |  |  |  |  |  |  |  |  | 
11 | CC1/C(=N/Nc2ccc([N+](=O)[O-])cc2)CC2C3(C)CCC2(C(C)C(=O)O)C(=O)C13 (stereo not drawn) | > 100 µM | > 100 µM | > 100 µM | > 100 µM | > 100 µM | > 100 µM | > 100 µM | > 100 µM | > 100 µM |  | 16.3 µM | 11.3 µM | 33.5 µM | 5.88 µM | > 100 µM | 29.1 µM | 3.18 µM | 8.17 µM | 8.75 µM | 
12 | CC(C)CCc1c(Cl)nc(Cl)nc1Cl | > 100 µM | 46.3 µM | > 100 µM | 39.7 µM | 39 µM |  | 11.5 µM |  | > 100 µM |  |  |  |  |  |  |  |  |  |  | 
13 | O=C1C[C@@H]2CCCC[C@@H]2C12SCCS2 | > 100 µM | > 100 µM | > 100 µM | > 100 µM | > 100 µM | > 100 µM | > 100 µM | > 100 µM | > 100 µM |  |  |  |  |  |  |  |  |  |  | 
14 | CCCCCN(CCCCC)CC(O)c1cc2c(c3ccccc13)CCCC2 (stereo not drawn) | 22.5 µM and 91.7 µM | 13 µM and 19.1 µM | 23.9 µM and 36.8 µM | 13.8 µM and 16.1 µM | 22.9 µM and 39.4 µM | 14.7 µM and 24.6 µM | 6.71 µM and 7.13 µM | 26.1 µM and 32.9 µM | 8.2 µM and 29 µM |  | 5.55 µM and 9.21 µM | 3.75 µM and 6.51 µM | 11.3 µM and 16.5 µM | 3.4 µM and 4.36 µM | 11 µM and 17.9 µM | 3.72 µM and 5.94 µM | 2.31 µM and 2.88 µM | 11.3 µM and 14.9 µM | 2.86 µM and 11.5 µM | 
15 | COc1cc(C(=O)CC2(O)C(=O)Nc3c(Cl)cc(Cl)cc32)ccc1O (stereo not drawn) | > 100 µM | > 100 µM | > 100 µM | > 100 µM | > 100 µM | > 100 µM | > 100 µM | > 100 µM | > 100 µM |  |  |  |  |  |  |  |  |  |  | 
16 | Cc1ccc(C2=C(c3ccccc3)C(Br)(c3ccccc3)C(c3ccccc3)=C2c2ccc(C)cc2)cc1 | > 100 µM | > 100 µM | > 100 µM | > 100 µM | > 100 µM | > 100 µM | > 100 µM | > 100 µM | > 100 µM |  |  |  |  |  |  |  |  |  |  | 
17 | N#CC1=C(N)Oc2c(sc3c(F)cccc23)C1c1ccc(F)cc1 (stereo not drawn) | 25.3 µM | 11.7 µM | 15.3 µM | 7.77 µM | 15 µM | 14.8 µM | 6.31 µM | 22.5 µM | 18.6 µM |  | 0.47 µM | 0.746 µM | 1.13 µM | 0.415 µM | 0.585 µM | 1.45 µM | 1.07 µM | 1.61 µM | 0.982 µM | 
